In general, EC50 refers to the concentration that produces a half-maximal response. A low value points to an effect from little substance. As a reminder, the IC50 is the concentration that gives 50% inhibition. Read a low IC50 as higher potency.

The target in assay [1] is T1, Peroxisome proliferator-activated receptor alpha (Homo sapiens, UniProt Q07869).
T1 sequence (Q07869 whole entry): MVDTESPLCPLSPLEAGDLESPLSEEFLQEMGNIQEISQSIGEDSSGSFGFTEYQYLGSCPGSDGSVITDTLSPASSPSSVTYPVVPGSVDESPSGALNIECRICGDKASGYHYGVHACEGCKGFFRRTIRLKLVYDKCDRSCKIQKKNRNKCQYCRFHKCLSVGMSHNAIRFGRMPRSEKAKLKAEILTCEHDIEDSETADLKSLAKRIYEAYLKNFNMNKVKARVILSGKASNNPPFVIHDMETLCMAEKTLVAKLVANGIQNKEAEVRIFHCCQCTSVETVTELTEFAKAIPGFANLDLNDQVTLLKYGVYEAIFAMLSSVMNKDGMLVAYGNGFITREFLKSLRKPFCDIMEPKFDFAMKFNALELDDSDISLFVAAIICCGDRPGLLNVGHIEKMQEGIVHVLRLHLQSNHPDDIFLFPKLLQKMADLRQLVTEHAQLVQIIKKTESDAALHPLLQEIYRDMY
The assay can be described thus: Effective concentration against human Peroxisome proliferator activated receptor alpha.

The target in assay [2] is T1, Peroxisome proliferator-activated receptor alpha. The assay can be described thus: Inhibition of human Peroxisome proliferator activated receptor alpha.
The subject of assay [3] is Rattus norvegicus. Briefly: Time to maximum concentration was measured in male SD rat after 10 mg/kg oral dosage; n=3.
In assay [4] the test system is Rattus norvegicus. Briefly: Half life was measured in male SD rat after 5 mg/kg intra arterial dosage; n=3.
Assay [5] relates to Rattus norvegicus. The assay can be described thus: Clearance was measured in male SD rat after 5 mg/kg intra arterial dosage; n=3.
For assay [6], the target named is T2, Peroxisome proliferator-activated receptor gamma (Homo sapiens, UniProt P37231).
T2 sequence (P37231 whole entry): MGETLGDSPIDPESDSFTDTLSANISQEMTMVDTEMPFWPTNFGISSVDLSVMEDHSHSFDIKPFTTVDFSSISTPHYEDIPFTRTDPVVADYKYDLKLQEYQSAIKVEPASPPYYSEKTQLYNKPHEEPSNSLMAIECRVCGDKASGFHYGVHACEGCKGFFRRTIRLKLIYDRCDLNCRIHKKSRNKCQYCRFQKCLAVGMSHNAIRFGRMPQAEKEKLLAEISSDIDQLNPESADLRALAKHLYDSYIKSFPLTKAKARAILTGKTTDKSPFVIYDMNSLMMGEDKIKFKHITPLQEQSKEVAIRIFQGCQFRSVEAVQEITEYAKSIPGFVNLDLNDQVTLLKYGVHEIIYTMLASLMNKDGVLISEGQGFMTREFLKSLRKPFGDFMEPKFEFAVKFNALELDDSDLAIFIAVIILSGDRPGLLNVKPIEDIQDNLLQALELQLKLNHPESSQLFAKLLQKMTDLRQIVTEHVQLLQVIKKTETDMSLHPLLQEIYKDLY
The assay can be described thus: Inhibition of human Peroxisome proliferator activated receptor gamma.

Assay [7] concerns the target T2, Peroxisome proliferator-activated receptor gamma.

`COc1ccc(OC(=O)N(CC(=O)O)Cc2ccc(OCCc3nc(-c4ccccc4)oc3C)cc2)cc1` [MURAGLITAZAR] gave an EC50 in assay [1] of 320 nM. Moreover, half-maximal inhibition in assay [2] (IC50) was put at 250 nM. Further, the Tmax in the assay with Rattus norvegicus [3] was determined as 0.4 h. In addition, in the assay with Rattus norvegicus [4], the T1/2 turned out to be 7.3 h. In the assay on Rattus norvegicus [5], the CL (mL.min-1.kg-1) is 3.
As to `CC(C)(Oc1ccc(C(=O)c2ccc(Cl)cc2)cc1)C(=O)O` [FENOFIBRIC ACID], in assay [1], the EC50 was more than 10000 nM. This compound had an IC50 in assay [2] of more than 10000 nM.
On to `CCCCCCCN(CCc1ccc(O[C@@](C)(CC)C(=O)O)cc1)C(=O)Nc1ccc(F)cc1F`, for which the values for the IC50 in assay [6] and in assay [2] were 316 nM and 538 nM, respectively. In addition, the EC50 in assay [1] was less than 20 nM; in assay [7], 425 nM.
`Cc1oc(-c2ccccc2)nc1CCOc1ccc(CN(CC(=O)O)Cc2ccccc2)cc1`: the IC50 was determined as 4800 nM in assay [6] and 1400 nM in assay [2]. Besides, the figures for the EC50 in assay [1] and in assay [7] were 20 nM and 1500 nM, respectively.

The record behind these values is ChEMBL document CHEMBL1143556 (J Med Chem, 2005).
